Consider one sequence from publication PMC7972453, “The allosteric modulation of complement C5 by knob domain peptides” (eLife, 2021).

Like-named read-outs stand apart in the source and are kept apart here. Bridges are numbered along the chain shown (N, C = ends). Where no end group is shown, it is not given here.

Test [1] concerns classical pathway mediated C5a release (complement C5). As to the kind of experiment: Inhibition of classical pathway mediated C5a release (ELISA). The settings on record: n=3 (K8: n=5), ND* = Not detected. The format is biochemical, human. How it is done: For the C5b ELISA, assays were run using the CP and AP Complement functional ELISA kits (Svar Life Science, Malmö, Sweden). For sample preparation, serum was diluted as per the respective protocol for the CP and AP assays. Serial dilutions of peptides were prepared and allowed to incubate with serum for 15 min at room temperature prior to plating.
For the C5a ELISA, assays were run using the Complement C5a Human ELISA Kit (Invitrogen, Renfrew, UK). For sample preparation, at the end of the 37°C incubation of the serum/peptide samples on the C5b ELISA plate, 50 µL of the diluted, activated serum was transferred to a C5a ELISA plate containing 50 µL/well of assay buffer. All subsequent experimental steps were performed as described in the protocol.
Table 1.3. Inhibition of classical pathway mediated C5a release.
Data from n=3 independent titrations, unless otherwise stated
For orientation: ELISA stands for enzyme-linked immunosorbent assay.

The target of the next test is T1, human C5 (Homo sapiens, UniProt P01031).
T1 construct: tissue TCS Biosciences (serum); host or cells: human serum
As to the kind of experiment: SPR multi-cycle kinetics, binding to C5. How it is done: Kinetics were measured using a Biacore 8K (GE Healthcare, Amersham, UK) with a CM5 chip, which was prepared as follows: 1-ethyl-3-(−3-dimethylaminopropyl) carbodiimide hydrochloride (EDC)/N-hydroxysuccinimide (NHS) was mixed at 1:1 ratio (flow rate, 10 µL/min; contact time, 30 s), and human C5 at 1 µg/mL in pH 4.5 sodium acetate buffer was injected over flow cell one only (flow rate, 10 µL/min; contact time, 60 s). Final immobilisation levels in the range of 2000–3000 RUs were obtained to yield theoretical Rmax values of ~50–60 RU. […] After each injection, the surface was regenerated with two sequential injections of 2 M MgCl2 (flow rate, 30 µL/min; contact time, 30 s). Binding to the reference surface was subtracted, and the data were fitted to a single-site binding model using Biacore evaluation software.
Table 2.6. Validation of molecular interactions by peptide mutagenesis analysis.
Summary of SPR multi-cycle kinetics

The test system of test [2] is classical pathway mediated C9 deposition. Kind of test: Inhibition of classical pathway mediated C9 deposition (ELISA). The settings on record: CP C9 deposition; 1% serum; n=3; ND* = Not detected. The format is biochemical, human. The procedure: (§1) For the C3 and C9 ELISAs, microtiter plates (MaxiSorp; Nunc) were incubated overnight at 4°C with 50 µL of a solution of in 75 mM sodium carbonate (pH 9.6) containing either 2.5 µg/mL aggregated human IgG (Sigma-Aldrich, Gillingham, UK) for CP or 20 µg/mL zymosan (Sigma-Aldrich, Gillingham, UK) for AP. As a negative control, wells were coated with 1% (w/v) bovine serum albumin (BSA)/PBS. Microtiter plates were washed four times with 250 µL of wash buffer (50 mM Tris-HCl), 150 mM NaCl and 0.1% Tween 20 (pH 8) between each step of the procedure. Wells were blocked using 250 µL of 1% (w/v) BSA/PBS for 2 hr at room temperature. […] Complement activation was assessed through detection of deposited complement activation factors using specific antibodies against C3b (rat anti-human C3d HM2198, Hycult, Uden, The Netherlands) and C9 (goat anti-human C9, A226, Complement Technologies Tyler, TX) at a 1:1000 dilution. Bound primary antibodies were detected with […]-conjugated goat anti-rat (ab97057, Abcam, Cambridge, UK) or rabbit anti-goat (P0449, Agilent Dako, Santa Clara, CA) secondary antibodies at a 1:1000 dilution. Bound HRP-conjugated antibodies were detected using TMB One solution (Eco-TEK – manufactured by Bio-TEK, Winooski, VT) with absorbance measured at 450 nm. […]

The subject of another test is C5 activation by the CP. Kind of test: Complement activation assays, classical pathway (overall). Conditions: C5a release, C5b neo-epitope formation and C9 deposition ELISAs; human serum. Format: biochemical. How it is done: For functional characterisation of the peptides, we performed complement assays for CP and AP activation in human serum, assessing C5b neo-epitope formation and C5a release (schematically presented in Figure 1A, B), in combination with orthogonal ELISAs, measuring C3b and C9 deposition.
as §1, with “(BSA)/PBS.” for “(BSA)/PBS. Microtiter plates were washed four times with 250 µL of wash buffer (50 mM Tris-HCl), 150 mM NaCl and 0.1% Tween 20 (pH 8) between each step of the procedure. Wells were blocked using 250 µL of 1% (w/v) BSA/PBS for 2 hr at room temperature.”

The test system of test [3] is sheep erythrocytes (classical pathway haemolysis). Kind of test: Inhibition of classical pathway haemolysis. Conditions: 1% serum. Format: cell-based, sheep erythrocytes; normal human serum. The procedure:
GVB^++ or Mg EGTA buffers, which had been supplemented with 2.5% glucose (w/v), were used for the CP and AP assays, respectively. For the AP, 150 µL of rabbit erythrocytes (TCS Biosciences, Botolph Claydon, UK) were washed twice, by addition of 1 mL of buffer and centrifugation at 800 ×g for 1 min, and finally resuspended in 500 µL of buffer. For the CP, 150 µL sheep erythrocytes (TCS Biosciences, Botolph Claydon, UK) were washed twice with 1 mL of buffer and sensitised with a 1/1000 dilution of rabbit anti-sheep red blood cell stroma antibody (S1389, Sigma Aldrich, Gillingham, UK). After a 30°C/30 min incubation, with shaking, the cells were rewashed and resuspended with 500 µL of buffer. Serial dilutions of peptide were prepared in the respective buffers and normal human serum was added at 1% for the CP and 4.5% for the AP (corresponding to CH50 of the serum). Also, 90 µL of peptide–serum mixtures were plated into a V-bottom 96-well microtiter plate (Corning) and 10 µL of erythrocytes were added. Plates were incubated for 30 min at 37°C, with shaking. Finally, 50 µL of buffer was added, the plates centrifuged at 800 ×g, and 80 µL of supernatant was transferred to an ELISA plate (Nunc) and absorbance measured at 405 nm.
Table 1.7. Inhibition of classical pathway haemolysis.

T1 sequence (P01031 678-1676 limits assumed): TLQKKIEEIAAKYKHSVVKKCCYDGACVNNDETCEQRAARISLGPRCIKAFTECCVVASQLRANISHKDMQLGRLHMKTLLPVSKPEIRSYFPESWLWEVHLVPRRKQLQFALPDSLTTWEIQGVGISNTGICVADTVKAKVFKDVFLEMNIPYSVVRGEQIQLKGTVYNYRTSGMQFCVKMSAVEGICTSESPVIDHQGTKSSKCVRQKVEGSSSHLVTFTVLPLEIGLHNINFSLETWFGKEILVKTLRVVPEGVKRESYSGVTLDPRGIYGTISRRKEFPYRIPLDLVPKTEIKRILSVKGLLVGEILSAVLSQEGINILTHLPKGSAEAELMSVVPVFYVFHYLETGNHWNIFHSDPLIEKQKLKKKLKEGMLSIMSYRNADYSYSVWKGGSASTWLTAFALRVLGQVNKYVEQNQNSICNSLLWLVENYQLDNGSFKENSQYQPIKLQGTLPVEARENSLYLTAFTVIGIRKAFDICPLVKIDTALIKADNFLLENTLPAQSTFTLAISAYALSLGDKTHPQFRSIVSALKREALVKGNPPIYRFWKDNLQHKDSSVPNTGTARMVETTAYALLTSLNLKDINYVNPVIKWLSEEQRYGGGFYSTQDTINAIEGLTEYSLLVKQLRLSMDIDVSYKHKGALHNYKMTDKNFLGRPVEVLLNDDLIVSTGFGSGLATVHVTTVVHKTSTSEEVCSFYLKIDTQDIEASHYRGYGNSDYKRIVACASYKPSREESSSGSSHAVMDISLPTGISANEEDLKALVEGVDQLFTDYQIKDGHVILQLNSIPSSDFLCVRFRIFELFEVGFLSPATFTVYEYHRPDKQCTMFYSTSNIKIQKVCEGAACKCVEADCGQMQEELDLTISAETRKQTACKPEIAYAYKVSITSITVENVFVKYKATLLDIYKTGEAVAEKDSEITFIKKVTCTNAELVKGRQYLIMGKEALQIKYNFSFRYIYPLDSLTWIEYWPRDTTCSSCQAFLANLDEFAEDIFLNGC
T1 sequence (P01031 19-673 limits assumed): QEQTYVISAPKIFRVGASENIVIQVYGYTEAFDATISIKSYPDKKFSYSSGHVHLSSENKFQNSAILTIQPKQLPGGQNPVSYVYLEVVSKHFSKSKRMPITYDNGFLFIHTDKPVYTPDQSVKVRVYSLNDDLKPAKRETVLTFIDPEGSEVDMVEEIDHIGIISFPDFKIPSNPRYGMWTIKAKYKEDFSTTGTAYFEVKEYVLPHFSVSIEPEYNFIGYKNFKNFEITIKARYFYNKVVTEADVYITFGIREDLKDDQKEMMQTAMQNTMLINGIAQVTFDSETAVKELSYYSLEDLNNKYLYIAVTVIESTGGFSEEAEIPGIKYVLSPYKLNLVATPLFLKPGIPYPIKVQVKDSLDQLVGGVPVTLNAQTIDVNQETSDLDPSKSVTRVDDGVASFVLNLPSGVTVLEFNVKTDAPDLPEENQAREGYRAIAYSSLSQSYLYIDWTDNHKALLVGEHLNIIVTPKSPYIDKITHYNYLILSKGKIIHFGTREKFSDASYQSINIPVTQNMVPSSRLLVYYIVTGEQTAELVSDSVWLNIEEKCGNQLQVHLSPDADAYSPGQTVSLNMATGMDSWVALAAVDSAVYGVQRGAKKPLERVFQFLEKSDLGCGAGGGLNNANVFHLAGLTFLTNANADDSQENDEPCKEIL

As for “SVCPDGFDWGYGCAAGSSRFCTRHDWCCYDERADSHTYGFCTGNRVENLYFQ (disulfide 3-28, 13-21, 27-41) [K8]”, the “Average Emax” value in test [1] (CP C5a release) is on record as 57.7%; in test [2], 63.4%; in test [3] (CP haemolysis, n=3, ND* = Not detected), 95.6%. In test [1] (CP, C5a Human ELISA kit (Invitrogen) on activated serum from C5b ELISA plate, read-out: Geomean IC50), the IC50 (in general, the concentration at which inhibition is half-maximal) came out at 9.9 nM. Moreover, the mean stoich. ratio on human C5 (Biacore 8K, mean of n=3) was 0.25. For the same sequence, the off-rate constant (koff) (in general, a measure of how fast the partners let go of each other) at human C5 (pH 7.4, read-out: mean koff, Biacore 8K, HBS-EP pH 7.4, mean of n=3) was determined as 0.000385 s⁻¹; on human C5 (replicate n=1) it was 0.000372 s⁻¹; on human C5 (replicate n=2), 0.000422 s⁻¹; on human C5 (replicate n=3), 0.000361 s⁻¹. For the same sequence, the kon – broadly, the rate constant with which the complex forms – at human C5 (pH 7.4, read-out: mean kon, Biacore 8K, CM5 chip, HBS-EP pH 7.4, mean of n=3) worked out at 70500 M⁻¹ s⁻¹; at human C5 (replicate n=1) it was 71000 M⁻¹ s⁻¹; at human C5 (replicate n=2) it was 72600 M⁻¹ s⁻¹; on human C5 (replicate n=3), 67800 M⁻¹ s⁻¹. The stoich. ratio at human C5 (replicate n=1) is on record as 0.28; on human C5 (replicate n=2), 0.23; at human C5 (replicate n=3), 0.24. In the test with C5 activation by the CP, the “inhibition of C5 activation, CP assays (in words)” value is “partially inhibiting both the AP and CP”. Besides, the “inhibition of CP haemolysis (in words)” value in test [3] (sheep erythrocytes) is listed as “efficacious in the CP assay”.
